Data set [1] has as its target CYP3A4 (Homo sapiens, UniProt P08684). Put plainly: Cytochrome inhibition, fluorometric microtiter plate assay. Type of data set: in vitro ADME. As to conditions: CYP3A4 cytochrome inhibition (IC50, concentrations in μM for 50% inhibition), human recombinant CYP3A4, substrate BFC, compounds of the invention. The method, then:
(§1) The ability of drug in human to inhibit the catalytic activity of cytochrome P-450 isoforms was assayed using microtiter plate-based, fluorometric assays for the activities of the five human major CYP forms. Inhibition potential was determined in vitro after incubation of fluorescent model substrates over various incubation time with human recombinant cytochrome isoforms in the absence or in presence of increasing concentrations of test molecules (from 1 nM to 100 μM), in comparison with specific CYP isoform inhibitors.
(§2) Incubation of drug was carried out at 37° C.±0.5° C. under agitation in the presence of human recombinant cytochrome P-450 isoforms and a NADPH generating system. The incubation conditions for each cytochrome isoform were as follows: […]

In data set [2] the target is CYP2D6 (Homo sapiens, UniProt P10635). The description is as above. Format: in vitro ADME. The note with it: CYP2D6 cytochrome inhibition (IC50, concentrations in μM for 50% inhibition), human recombinant CYP2D6, substrate AMMC, compounds of the invention. The method, then: as §1, §2
Chain of CYP2D6 (P10635 whole entry): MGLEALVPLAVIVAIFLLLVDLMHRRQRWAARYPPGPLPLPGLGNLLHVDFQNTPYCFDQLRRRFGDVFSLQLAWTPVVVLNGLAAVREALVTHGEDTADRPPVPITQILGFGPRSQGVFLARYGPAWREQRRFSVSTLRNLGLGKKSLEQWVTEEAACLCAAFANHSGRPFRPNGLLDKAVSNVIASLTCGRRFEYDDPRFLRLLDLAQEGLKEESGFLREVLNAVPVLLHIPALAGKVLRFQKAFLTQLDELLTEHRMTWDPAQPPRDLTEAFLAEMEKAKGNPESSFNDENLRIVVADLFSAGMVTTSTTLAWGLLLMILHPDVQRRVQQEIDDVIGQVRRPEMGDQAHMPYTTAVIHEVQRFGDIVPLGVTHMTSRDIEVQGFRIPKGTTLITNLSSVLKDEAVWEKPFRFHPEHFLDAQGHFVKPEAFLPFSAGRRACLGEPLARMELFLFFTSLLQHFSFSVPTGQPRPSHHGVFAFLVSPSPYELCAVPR
Data set [3] deals with human histamine H3 receptors (Homo sapiens, UniProt Q9Y5N1). Description: H3 binding ([125I]iodoproxyfan displacement on membranes). As to conditions: compounds of the invention; membranes expressing human H3 receptors. The method, then: Membranes expressing human histamine H3 receptors were incubated 1 hour at room temperature in binding buffer containing 50 mM Na2HPO4/KH2PO4 pH 7.5 in a final volume of 200 μl. […] The reaction was stopped by rapid filtration through GF/B filters (pre-soaked for 2 hours with 0.3% polyethyleneimine) followed by 3 ice cold binding buffer washes. The filter-bound radioactivity was measured in a liquid scintillation counter with 50 μl of scintillation fluid.
Chain of human histamine H3 receptors (Q9Y5N1 whole entry): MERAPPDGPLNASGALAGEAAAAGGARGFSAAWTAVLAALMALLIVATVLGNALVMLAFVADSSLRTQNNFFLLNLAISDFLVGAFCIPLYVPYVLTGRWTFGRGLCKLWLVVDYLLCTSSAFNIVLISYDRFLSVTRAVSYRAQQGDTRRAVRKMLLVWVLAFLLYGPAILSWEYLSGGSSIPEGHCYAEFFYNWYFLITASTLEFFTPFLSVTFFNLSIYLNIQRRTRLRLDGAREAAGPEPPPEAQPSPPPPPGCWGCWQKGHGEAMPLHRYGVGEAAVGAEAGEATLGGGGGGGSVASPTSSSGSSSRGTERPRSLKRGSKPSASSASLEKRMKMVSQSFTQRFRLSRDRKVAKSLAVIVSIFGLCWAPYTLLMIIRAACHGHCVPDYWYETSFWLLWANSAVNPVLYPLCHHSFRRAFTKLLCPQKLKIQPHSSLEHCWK

The mark [4] stands for this setting: human, recombinant human CYP3A4, probe BFC.

Each structure is given as a SMILES string. Values joined by “and” are separate entries in the source; they are usually repeats but may differ in a detail not shown here. Equal values may be shown once. Where a name gives a salt, the structure may show the parent alone.

Chain of CYP3A4 (P08684 whole entry, canonical isoform): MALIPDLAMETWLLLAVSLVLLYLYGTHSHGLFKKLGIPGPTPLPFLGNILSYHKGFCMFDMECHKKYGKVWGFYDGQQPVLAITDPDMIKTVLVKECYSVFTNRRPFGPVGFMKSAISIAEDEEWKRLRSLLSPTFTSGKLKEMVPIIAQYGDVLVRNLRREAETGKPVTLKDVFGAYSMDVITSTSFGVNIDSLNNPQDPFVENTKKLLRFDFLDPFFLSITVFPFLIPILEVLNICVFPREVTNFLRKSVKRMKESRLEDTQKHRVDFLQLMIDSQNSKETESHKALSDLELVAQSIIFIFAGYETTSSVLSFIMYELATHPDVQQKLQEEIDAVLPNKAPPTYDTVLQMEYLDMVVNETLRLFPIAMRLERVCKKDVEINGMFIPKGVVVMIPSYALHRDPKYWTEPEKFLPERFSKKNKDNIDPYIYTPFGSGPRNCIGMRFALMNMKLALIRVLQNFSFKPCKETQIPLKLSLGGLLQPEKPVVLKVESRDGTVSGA

Take `C[C@H]1CCCN(CCCOc2ccc(C3CCC(N4CCOCC4)CC3)cc2)C1` (single isomer, unassigned) [Example 41, dihydrochloride]: the IC50 is > 1 µM and 13 µM in data set [1]; > 10 µM and 14 µM in data set [2]. Moreover, in data set [3], the Ki came out at 0.13 nM.
In the case of `c1cc(-c2ccc(OCCCN3CCCCC3)cc2)ccc1OCCCN1CCCCC1` [Example 35, di-1,1′-{(biphenyl-4,4′-diyl)bis[oxy(propan-1,3-diyl)]}piperidine], the IC50 in data set [1] turned out to be 5 µM; in data set [2] it was 71 µM. Besides, the Ki in data set [3] is 0.1 nM.
As for `O=C(c1ccccc1)c1ccc(OCCCN2CCCCC2)cc1` [Example 3], the IC50 in data set [1] came out at 18 µM; in data set [2], 32 µM. Further, in data set [3], the affinity corresponds to a Ki of 1.1 nM.
Consider `c1cc(-c2ccc(OCCCN3CCCCC3)cc2)cs1` [Example 29, 1-{3-[4-(3-thienyl)phenoxy]propyl}piperidine], for which the IC50 in data set [1] is over 100 µM; in data set [2] it was 24 µM. In addition, the Ki in data set [3] worked out at 0.88 nM.
As for `C[C@H]1CCCN(CCCOc2ccc(-c3ccnc(OCCCN4CCCCC4)c3)cc2)C1` [Example 58, 2-(3-piperidinopropoxy)-4-(4-{3-[(3S)-3-methylpiperidin-1-yl]propoxy}phenyl)-pyridine], the 50% inhibitory concentration (IC50) in data set [1] and in data set [2] was over 10 µM each time. The compound further gave a Ki in data set [3] of 0.061 nM.
For the compound `CN1CCC(CCOCc2ccc(OCCCN3CCCCC3)cc2)CC1` [Example 69, 1-methyl-4-{2-[4-(3-piperidinopropoxy)benzyloxy]ethyl}piperidine], the IC50 in data set [1] and in data set [2] was over 10 µM each time. The affinity in data set [3] corresponds to a Ki of 1.19 nM.
Turning to `C[C@@H]1C[C@@H](C)CN(CCCOc2ccc(-c3cc[nH]n3)cc2)C1` (relative stereo) [Example 34, trans-3,5-dimethyl-1-{3-[4-(pyrazol-3-yl)phenoxy]propyl}piperidine], the results for the IC50 in data set [1] (setting [4]) and in data set [2] were 10 µM and 20 µM, respectively.
With `C[C@H]1CCCN(CCCOc2ccc(C3CCC(C)(O)CC3)cc2)C1` (stereo partly drawn) [Example 64, (3S)-1-{3-[4-(4-hydroxy-4-methylcyclohexyl)phenoxy]propyl}-3-methylpiperidine], the IC50 in data set [1] and in data set [2] was over 10 µM each time.
On to `C[C@H]1CCCN(CCCOc2ccc([C@H]3CC[C@H](O)CC3)cc2)C1` [Example 61, (3S)-1-{3-[trans-4-(4-hydroxycyclohexyl)phenoxy]propyl}-3-methylpiperidine], for which the IC50 in data set [1] and in data set [2] was over 10 µM each time.
`CCCC(O)(CCC)c1ccc(OCCCN2CCCCC2)cc1` [Example 7, 1-{3-[4-(1-hydroxy-1-propylbutyl)phenoxy]propyl}piperidine]: the IC50 worked out at 4 µM in data set [1] and 39 µM in data set [2]. In data set [3], this compound returned a Ki of 0.74 nM.
As for `C[C@H]1C[C@H](C)CN(CCCOc2ccc(C(=O)N(C)C)cc2)C1` (relative stereo) [Example 1, trans-1-{3-[4-(N,N-dimethylcarbamoyl)phenoxy]propyl}-3,5-dimethylpiperidine], the results for the IC50 in data set [1] and in data set [2] were 32 µM and over 10 µM, respectively. The compound further showed a Ki in data set [3] of 2.9 nM.
For `C(=C/c1ccc(-c2ccc(OCCCN3CCCCC3)cc2)cc1)/CN1CCCCC1` [Example 45, (Z)-1-(3-{[4′-(3-piperidinoprop-1-en-1-yl)biphenyl-4-yl]oxy}propyl)piperidine], the results for the IC50 in data set [1] and in data set [2] were 5 µM and 79 µM, respectively.
Take `OC1(c2ccc(OCCCN3CCCCC3)cc2)CCCC1` [Example 8, 1-{3-[4-(1-hydroxycyclopentyl)phenoxy]propyl}piperidine]: the half-inhibitory concentration (IC50) in data set [1] is 20 µM; in data set [2], over 100 µM. Besides, the Ki in data set [3] is 0.82 nM.
With `CC1CCCN1CCCOc1ccc([C@H]2CC[C@H](O)CC2)cc1` (stereo partly drawn) [Example 66, 1-{3-[trans-4-(4-hydroxycyclohexyl)phenoxy]propyl}-2-methylpyrrolidine], the IC50 in data set [1] and in data set [2] was over 10 µM throughout. The same compound had a Ki in data set [3] of 0.83 nM.
Take `C[C@H]1C[C@H](C)CN(CCCOc2ccc(-n3cccc3)cc2)C1` (relative stereo) [Example 33, trans-3,5-dimethyl-1-{3-[4-(pyrrol-1-yl)phenoxy]propyl}piperidine]: the IC50 was found to be 7 µM in data set [1] and 3 µM in data set [2].
For the compound `C[C@H]1CCCN(CCCOc2ccc(-c3cc[n+]([O-])cc3)cc2)C1` [Example 51, (3S)-4-{4-[3-(3-methylpiperidin-1-yl)propoxy]phenyl}pyridine 1-oxide], the figures for the IC50 in data set [1] and in data set [2] were 72 µM and over 100 µM, respectively.
For `C[C@@H]1C[C@@H](C)CN(CCCOc2ccc(-c3ccncc3)cc2)C1` (relative stereo) [Example 31, trans-3,5-dimethyl-1-{3-[4-(4-pyridyl)phenoxy]propyl}piperidine] the same measures were 4 µM and 4 µM.
The like results for `C(=C\c1ccc(OCCCN2CCCCC2)cc1)/c1ccccc1` [Example 11, trans-1-{3-(4-styrylphenoxy)propyl]piperidine] were, in that order, 20 µM and 5 µM.
`Cc1cc(-c2ccc(OCCCN3CCC[C@H](C)C3)cc2)cc[n+]1[O-]` [Example 54, 2-methyl-4-(4-{3-[(3S)-3-methylpiperidin-1-yl]propoxy}phenyl)pyridine 1-oxide]: the values for the IC50 in data set [1] and in data set [2] were over 1 µM and over 10 µM, respectively. Further, the Ki in data set [3] stood at 0.4 nM.
Consider `Cc1ccc(-c2ccc(OCCCN3C[C@@H](C)C[C@H](C)C3)cc2)cc1` (relative stereo) [Example 27, trans-3,5-dimethyl-1-{3-[(4′-methylbiphenyl-4-yl)oxy]propyl}piperidine], for which the IC50 is over 1 µM in data set [1] and over 10 µM in data set [2].
Regarding `C[C@H]1CCCN(CCCOc2ccc([C@H]3CC[C@H](O)CC3)cc2)C1` [Example 62, (3S)-1-{3-[4-(4-hydroxycyclohexyl)phenoxy]propyl}-3-methylpiperidine], the Ki in data set [3] was 0.554 nM.
`C[C@@H]1C[C@@H](C)CN(CCCOc2ccc([C@H]3CC[C@@H](N(C)C)CC3)cc2)C1` (relative stereo) [Example 20, trans-1-{3-[4-(cis-4-dimethylaminocyclohex-1-yl)phenoxy]propyl}-3,5-dimethylpiperidine, dioxalate and trans-1-{3-[4-(trans-4-dimethylaminocyclohex-1-yl)-phenoxy]propyl}-3,5-dimethylpiperidine, dioxalate]: the IC50 in data set [1] is 38 µM and 35 µM; in data set [2], over 10 µM.
For the compound `N#CCc1ccc(OCCCN2CCCCC2)cc1` [Example 4], the IC50 in data set [1] and in data set [2] was over 10 µM in each case.
The compound `C[C@@H]1C[C@@H](C)CN(CCCOc2ccc(C3=NCCC3)cc2)C1` (relative stereo) [Example 17, trans-1-{3-[4-(4,5-dihydro-3H-pyrrol-2-yl)phenoxy]propyl}-3,5-dimethylpiperidine] had a Ki in data set [3] of 0.43 nM. That is a sub-nanomolar value.
Consider `Cc1ccccc1-c1ccc(OCCCN2CCCCC2)cc1` [Example 28, 1-{3-[(2′-methylbiphenyl-4-yl)oxy]propyl}piperidine], for which the IC50 in data set [1] (setting [4]) was found to be 10 µM; in data set [2] (human, recombinant human CYP2D6, probe AMMC) it was 10 µM. Moreover, the inhibitory constant (Ki) in data set [3] is 0.53 nM.
Take `CCN1CCCC(OCc2ccc(OCCCN3CCCCC3)cc2)C1` (stereo not shown) [Example 70, 1-ethyl-3-[4-(3-piperidinopropoxy)benzyloxy]piperidine]: the Ki in data set [3] was found to be 0.35 nM.
Take `C[C@H]1C[C@H](C)CN(CCCOc2ccc([C@H]3CC[C@H](N(C)C)CC3)cc2)C1` [Example 12, (3S,5S)-1-{3-[4-(trans-4-dimethylaminocyclohex-1-yl)phenoxy]propyl}-3,5-dimethylpiperidine]: the IC50 was 28 µM in data set [1] and over 10 µM in data set [2].
In the case of `c1cc(-c2ccc(OCCCN3CCCCC3)cc2)ccc1CCCN1CCCCC1` [Example 48], the IC50 in data set [1] and in data set [2] was 2 µM each time.
`c1cc(-c2ccc(OCCCN3CCCCC3)cc2)ccn1` [Example 30]: the IC50 in data set [1] was 11 µM; in data set [2], 7 µM.
Turning to `CN(C)[C@H]1CC[C@@H](Cc2ccc(OCCCN3CCCCC3)cc2)CC1` [Example 47, 1-{3-[4-(cis-4-dimethylaminocyclohex-1-yl)methylphenoxy]propyl}piperidine], the IC50 in data set [1] amounted to 37 µM; in data set [2], 107 µM.
For `CC1CCCN(CCCOc2ccc(C(C)(C)O)cc2)C1` (racemic) [Example 6, (RS)-1-{3-[4-(1-hydroxy-1-methylethyl)phenoxy]propyl}-3-methylpiperidine] the same measures were over 10 µM and over 10 µM.
For `C(=C\c1ccc(-c2ccc(OCCCN3CCCCC3)cc2)cc1)/CN1CCCCC1` [Example 44, (E)-1-(3-{[4′-(3-piperidinoprop-1-en-1-yl)biphenyl-4-yl]oxy}propyl)piperidine] the same measures were over 1 µM and over 10 µM.

The values above are taken from patent US8076329B2, “Histamine H3-receptor ligands and their therapeutic applications” (Bioprojet, priority 2005, dated 2011).
